In ChEMBL document CHEMBL5543162, “Discovery of a Novel Orally Bioavailable FLT3-PROTAC Degrader for Efficient Treatment of Acute Myeloid Leukemia and Overcoming Resistance of FLT3 Inhibitors” (J Med Chem, 2024):
The source made the active and inactive calls. No cut-off for these calls is given here.

Key:
[1] = tested on: Protein cereblon/Receptor-type tyrosine-protein kinase FLT3 (Homo sapiens), P36888+Q96SW2 [UNDEFINED MUTATION]; test: (§1) PROTAC activity at CRBN/FLT3-ITD mutant in human MV4-11 cells assessed as protein degradation by Western blot analysis; assay type: cell-based
[2] = target: T1, Protein cereblon/Receptor-type tyrosine-protein kinase FLT3 (Homo sapiens, UniProt P36888+Q96SW2); test: as §1; assay type: cell-based
[3] = target: T1, Protein cereblon/Receptor-type tyrosine-protein kinase FLT3; test: PROTAC activity at CRBN/FLT3-ITD mutant in human MOLM-13 cells assessed as protein degradation by Western blot analysis; assay type: cell-based
[4] = tested on: Protein cereblon/Receptor-type tyrosine-protein kinase FLT3 (Homo sapiens), P36888+Q96SW2 [UNDEFINED MUTATION]; test: PROTAC activity at CRBN/FLT3-ITD mutant in human MV4-11 cells assessed as protein degradation incubated for 12 hrs by Western blot analysis; assay type: cell-based; details: dose <= 20.0 nM
[5] = tested on: Protein cereblon/Receptor-type tyrosine-protein kinase FLT3 (Homo sapiens), P36888+Q96SW2 [UNDEFINED MUTATION]; test: PROTAC activity at CRBN/FLT3-ITD mutant in human MV4-11 cells assessed as decrease in ERK level incubated for 12 hrs by Western blot analysis; assay type: cell-based; details: dose <= 20.0 nM
[6] = tested on: Protein cereblon/Receptor-type tyrosine-protein kinase FLT3 (Homo sapiens), P36888+Q96SW2 [UNDEFINED MUTATION]; test: PROTAC activity at CRBN/FLT3-ITD mutant in human MV4-11 cells assessed as protein degradation at 20 nM by Western blot analysis; assay type: cell-based; details: time <= 12.0 hrs, TDE = time-dependent effect
[7] = tested on: Protein cereblon/Receptor-type tyrosine-protein kinase FLT3 (Homo sapiens), P36888+Q96SW2 [UNDEFINED MUTATION]; test: PROTAC activity at CRBN/FLT3-ITD mutant in human MV4-11 cells assessed as decrease in S6K level at 20 nM by Western blot analysis; assay type: cell-based; details: time <= 12.0 hrs, TDE = time-dependent effect
[8] = tested on: Protein cereblon/Receptor-type tyrosine-protein kinase FLT3 (Homo sapiens), P36888+Q96SW2 [UNDEFINED MUTATION]; test: PROTAC activity at CRBN/FLT3-ITD mutant in human MOLM-13 cells assessed as decrease in S6K level at 20 nM by Western blot analysis; assay type: cell-based; details: time <= 12.0 hrs, TDE = time-dependent effect
[9] = tested on: Protein cereblon/Receptor-type tyrosine-protein kinase FLT3 (Homo sapiens), P36888+Q96SW2 [UNDEFINED MUTATION]; test: PROTAC activity at CRBN/FLT3-ITD mutant in human MOLM-13 cells assessed as protein degradation at 100 nM incubated for 8 hrs in presence of bortezomib by Western blot analysis; assay type: cell-based
MV4-11 [10] = test: Induction of cell cycle arrest at G1 phase in human MV4-11 cells at 50 nM incubated for 24 hrs by PI/RNase staining based flow cytometry relative to control; assay type: functional
MOLM-13 = test: Induction of cell cycle arrest at G1 phase in human MOLM-13 cells incubated for 24 hrs by PI/RNase staining based flow cytometry; assay type: functional; details: dose 1-50 nM
[11] = Cmax in Sprague-Dawley rat at 10 mg/kg, po measured for 24 hrs by LC-MS/MS analysis; assay type: ADME, organism-based; details: in vivo
[12] = Tmax in Sprague-Dawley rat at 10 mg/kg, po measured for 24 hrs by LC-MS/MS analysis; assay type: ADME, organism-based; details: in vivo
[13] = Half life in Sprague-Dawley rat at 10 mg/kg, po measured for 24 hrs by LC-MS/MS analysis; assay type: ADME, organism-based; details: in vivo
[14] = Clearance in Sprague-Dawley rat at 10 mg/kg, po measured for 24 hrs by LC-MS/MS analysis; assay type: ADME, organism-based; details: in vivo
[15] = Toxicity in nu/nu mouse xenografted with human MV4-11 cells assessed as change in body weight at 1.25 to 10 mg/kg, po administered daily for 2 weeks; assay type: organism-based; details: in vivo, 336 h, dose 1.25-10 mg/kg
MV4-11 [16] = test: Induction of proapoptosis in human MV4-11 cells xenografted in nu/nu mouse assessed as increase in cleaved caspase-3 level at 1.25 to 10 mg/kg, po administered daily for 2 weeks; assay type: functional, organism-based; details: dose 1.25-10 mg/kg
[17] = Toxicity in nu/nu mouse xenografted with human MV4-11 cells assessed as damage in heart at 1.25 to 10 mg/kg, po administered daily for 2 weeks by H and E staining based analysis; assay type: organism-based; details: in vivo, 336 h, dose 1.25-10 mg/kg
[18] = Toxicity in nu/nu mouse xenografted with human MV4-11 cells assessed as damage in spleen at 1.25 to 10 mg/kg, po administered daily for 2 weeks by H and E staining based analysis; assay type: organism-based; details: in vivo, 336 h, dose 1.25-10 mg/kg
MV4-11 [19] = test: Antitumor activity against human MV4-11 cells expressing luciferase xenografted in NSG mouse assessed as decrease in leukemic burden at 2.5 to 10 mg/kg, po administered daily for 3 weeks by bioluminescence imaging; assay type: functional, organism-based; details: dose 2.5-10 mg/kg
MV4-11 [20] = test: Antitumor activity against human MV4-11 cells expressing luciferase xenografted in NSG mouse assessed as increase in animal survival at 2.5 mg/kg, po administered daily for 3 weeks and measured for 58 days; assay type: functional, organism-based; details: time 58.0 day
MV4-11 [21] = test: Antitumor activity against human MV4-11 cells expressing luciferase xenografted in NSG mouse assessed as increase in animal survival at 5 mg/kg, po administered daily for 3 weeks and measured for 66 days; assay type: functional, organism-based; details: time 66.0 day
Mus musculus = test: Anti-leukemic activity in NSG mouse xenografted with human MV4-11 cells expressing luciferase assessed as decrease in CD45+/CD33+ cells proportion in spleen at 1.25 to 10 mg/kg, po administered daily for 3 weeks; assay type: functional, organism-based; details: dose 1.25-10 mg/kg
[22] = Toxicity in NSG mouse xenografted with human MV4-11 cells expressing luciferase assessed as obvious adverse response at 1.25 to 10 mg/kg, po administered daily for 3 weeks; assay type: organism-based; details: in vivo, 504 h, dose 1.25-10 mg/kg
MV4-11 [23] = test: Antitumor activity against human MV4-11 cells xenografted with nude mouse assessed as decrease in tumor growth at 120 mg/kg, po administered daily measured after 3 days; assay type: functional, organism-based; details: time 3.0 day
[24] = tested on: Protein cereblon/Receptor-type tyrosine-protein kinase FLT3 (Homo sapiens), P36888+Q96SW2 [UNDEFINED MUTATION]; test: PROTAC activity at CRBN/FLT3-ITD in human MV4-11 cells assessed as protein degradation by TMT-based global proteomic profiling analysis; assay type: cell-based
BaF3 = test: Antiproliferative activity against mouse Ba/F3 cells expressing FLT3-ITD Y842H mutant incubated for 48 hrs by CCK8 assay; assay type: functional, cell-based; details: BaF3, 48 h
[25] = Stability in mouse liver microsomes assessed as half life; assay type: ADME, Microsome
[26] = Stability in dog liver microsomes assessed as hepatic clearance; assay type: ADME, Canis lupus familiaris, Microsome
Cytochrome P450 2D6 = Cytochrome P450 2D6 (Homo sapiens, UniProt P10635); test: Inhibition of CYP2D6 (unknown origin); assay type: ADME
Cytochrome P450 2C8 = target: T2, Cytochrome P450 2C8 (Homo sapiens, UniProt P10632); test: Inhibition of CYP2C8 (unknown origin); assay type: ADME
T2 sequence (P10632 whole entry): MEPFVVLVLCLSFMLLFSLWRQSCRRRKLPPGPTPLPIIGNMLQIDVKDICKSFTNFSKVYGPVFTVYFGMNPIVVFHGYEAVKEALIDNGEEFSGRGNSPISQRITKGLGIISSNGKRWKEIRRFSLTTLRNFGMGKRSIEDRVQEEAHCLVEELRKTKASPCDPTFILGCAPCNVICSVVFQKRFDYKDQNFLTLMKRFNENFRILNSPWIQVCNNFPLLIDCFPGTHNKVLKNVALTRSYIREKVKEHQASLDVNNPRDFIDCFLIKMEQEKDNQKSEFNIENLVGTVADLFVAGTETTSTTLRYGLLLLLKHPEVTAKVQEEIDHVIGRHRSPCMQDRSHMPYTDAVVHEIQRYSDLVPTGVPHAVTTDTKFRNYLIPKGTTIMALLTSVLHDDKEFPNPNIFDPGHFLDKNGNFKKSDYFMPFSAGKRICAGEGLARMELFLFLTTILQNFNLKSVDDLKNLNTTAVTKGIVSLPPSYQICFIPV

[27] = target: Voltage-gated inwardly rectifying potassium channel KCNH2 (Homo sapiens, UniProt Q12809); test: Inhibition of hERG; assay type: toxicity
Voltage-gated inwardly rectifying potassium channel KCNH2, sequence (Q12809 whole entry): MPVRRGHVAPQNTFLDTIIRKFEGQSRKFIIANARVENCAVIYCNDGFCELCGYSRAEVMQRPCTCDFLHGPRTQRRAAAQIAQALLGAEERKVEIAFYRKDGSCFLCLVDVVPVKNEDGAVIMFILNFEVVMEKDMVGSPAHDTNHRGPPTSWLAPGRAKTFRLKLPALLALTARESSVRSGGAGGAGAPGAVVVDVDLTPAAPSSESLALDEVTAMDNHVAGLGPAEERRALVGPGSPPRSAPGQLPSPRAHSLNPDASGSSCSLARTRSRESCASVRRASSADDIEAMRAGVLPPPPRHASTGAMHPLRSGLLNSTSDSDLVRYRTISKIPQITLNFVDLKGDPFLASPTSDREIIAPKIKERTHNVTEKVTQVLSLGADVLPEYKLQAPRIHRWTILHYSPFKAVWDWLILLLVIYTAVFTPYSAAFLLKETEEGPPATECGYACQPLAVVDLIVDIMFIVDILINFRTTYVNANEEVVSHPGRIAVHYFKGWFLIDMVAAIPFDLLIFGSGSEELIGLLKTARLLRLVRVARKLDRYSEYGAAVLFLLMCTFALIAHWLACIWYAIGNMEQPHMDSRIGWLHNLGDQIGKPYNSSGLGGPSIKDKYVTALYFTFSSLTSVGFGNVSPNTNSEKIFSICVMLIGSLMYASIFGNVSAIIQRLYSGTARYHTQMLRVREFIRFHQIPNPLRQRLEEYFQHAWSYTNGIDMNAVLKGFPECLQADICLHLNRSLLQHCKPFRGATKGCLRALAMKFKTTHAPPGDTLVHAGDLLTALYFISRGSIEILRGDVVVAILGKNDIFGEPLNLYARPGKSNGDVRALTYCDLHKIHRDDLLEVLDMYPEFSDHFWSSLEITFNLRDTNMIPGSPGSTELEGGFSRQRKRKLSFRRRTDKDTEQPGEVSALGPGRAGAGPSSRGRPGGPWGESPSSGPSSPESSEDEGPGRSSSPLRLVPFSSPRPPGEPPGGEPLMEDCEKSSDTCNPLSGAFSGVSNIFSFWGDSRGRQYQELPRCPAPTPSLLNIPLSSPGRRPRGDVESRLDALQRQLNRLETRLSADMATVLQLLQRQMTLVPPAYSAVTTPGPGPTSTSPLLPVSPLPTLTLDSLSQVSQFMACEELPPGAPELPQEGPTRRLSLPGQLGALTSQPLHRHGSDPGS

Protein cereblon/Receptor-type tyrosine-protein kinase FLT3 (Homo sapiens), P36888+Q96SW2 [UNDEFINED MUTATION], sequence (P36888 whole entry, looked up, stated change not applied): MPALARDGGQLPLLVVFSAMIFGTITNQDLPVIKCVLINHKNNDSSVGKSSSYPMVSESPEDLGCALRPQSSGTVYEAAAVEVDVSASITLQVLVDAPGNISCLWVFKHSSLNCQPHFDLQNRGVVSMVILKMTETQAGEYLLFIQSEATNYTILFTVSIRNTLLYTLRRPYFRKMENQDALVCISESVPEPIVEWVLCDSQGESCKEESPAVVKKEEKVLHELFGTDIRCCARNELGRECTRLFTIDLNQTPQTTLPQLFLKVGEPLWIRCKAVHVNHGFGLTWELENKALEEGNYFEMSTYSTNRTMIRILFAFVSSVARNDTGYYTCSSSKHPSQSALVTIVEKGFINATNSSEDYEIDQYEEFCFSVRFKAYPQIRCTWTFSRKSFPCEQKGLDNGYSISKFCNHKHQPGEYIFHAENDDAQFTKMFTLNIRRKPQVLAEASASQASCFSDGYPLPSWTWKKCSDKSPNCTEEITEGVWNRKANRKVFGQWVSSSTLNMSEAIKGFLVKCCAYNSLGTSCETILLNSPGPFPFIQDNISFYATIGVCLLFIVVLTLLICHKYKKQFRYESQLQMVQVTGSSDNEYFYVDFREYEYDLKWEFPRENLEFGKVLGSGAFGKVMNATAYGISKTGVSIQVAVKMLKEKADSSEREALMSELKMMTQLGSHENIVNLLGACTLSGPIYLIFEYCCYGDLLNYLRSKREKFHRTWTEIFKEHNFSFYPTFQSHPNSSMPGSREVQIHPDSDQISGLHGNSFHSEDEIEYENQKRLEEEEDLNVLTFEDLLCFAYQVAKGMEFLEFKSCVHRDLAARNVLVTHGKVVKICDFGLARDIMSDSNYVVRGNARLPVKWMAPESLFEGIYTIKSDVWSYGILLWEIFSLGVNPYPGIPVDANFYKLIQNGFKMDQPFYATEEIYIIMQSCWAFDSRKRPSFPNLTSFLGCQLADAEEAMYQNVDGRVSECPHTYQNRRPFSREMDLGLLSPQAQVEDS
Protein cereblon/Receptor-type tyrosine-protein kinase FLT3 (Homo sapiens), P36888+Q96SW2 [UNDEFINED MUTATION], sequence (Q96SW2 whole entry, looked up, stated change not applied): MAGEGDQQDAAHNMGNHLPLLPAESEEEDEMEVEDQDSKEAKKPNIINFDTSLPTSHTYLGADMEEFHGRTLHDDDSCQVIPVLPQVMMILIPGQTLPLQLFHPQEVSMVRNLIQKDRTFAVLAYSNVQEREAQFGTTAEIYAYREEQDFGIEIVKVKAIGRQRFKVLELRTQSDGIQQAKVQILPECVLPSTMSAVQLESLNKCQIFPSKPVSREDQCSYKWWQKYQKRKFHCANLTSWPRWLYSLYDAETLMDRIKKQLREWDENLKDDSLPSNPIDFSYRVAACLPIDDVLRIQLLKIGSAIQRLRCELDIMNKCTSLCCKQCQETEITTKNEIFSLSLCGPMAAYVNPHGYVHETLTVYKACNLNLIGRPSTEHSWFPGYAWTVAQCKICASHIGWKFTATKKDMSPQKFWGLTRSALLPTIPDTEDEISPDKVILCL
T1 sequence (P36888 whole entry, looked up, change not shown): as the sequence (P36888 whole entry, looked up, stated change not applied) above
T1 sequence (Q96SW2 whole entry, looked up, change not shown): as the sequence (Q96SW2 whole entry, looked up, stated change not applied) above
Cytochrome P450 2D6, sequence (P10635 whole entry): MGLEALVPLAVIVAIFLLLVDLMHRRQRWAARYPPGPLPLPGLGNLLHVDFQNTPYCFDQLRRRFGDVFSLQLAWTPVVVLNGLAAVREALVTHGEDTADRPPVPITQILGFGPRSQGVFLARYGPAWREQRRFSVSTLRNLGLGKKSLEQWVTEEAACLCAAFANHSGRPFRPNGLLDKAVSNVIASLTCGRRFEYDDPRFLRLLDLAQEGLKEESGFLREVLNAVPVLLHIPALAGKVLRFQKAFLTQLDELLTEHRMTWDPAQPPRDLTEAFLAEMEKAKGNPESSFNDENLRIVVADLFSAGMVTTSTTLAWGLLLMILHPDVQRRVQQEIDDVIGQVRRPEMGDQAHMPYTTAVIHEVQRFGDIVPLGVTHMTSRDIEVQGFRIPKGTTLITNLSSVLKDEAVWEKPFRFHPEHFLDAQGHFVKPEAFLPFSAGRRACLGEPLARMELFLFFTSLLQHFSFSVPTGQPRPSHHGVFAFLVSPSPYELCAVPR

SMILES: Cc1c(NC(=O)CN2CCN(CC3CCN(c4ccc5c(c4)C(=O)N(C4CCC(=O)NC4=O)C5=O)CC3)CC2)c[nH]c1/C=C1\C(=O)Nc2ccc(F)cc21 (configuration not stated)
- Activity [1]: Dose-Dependent Effect
- DC50 [2]: 7.4 nM
- DC50 [3]: 20.1 nM
- Activity [4]: Dose-Dependent Effect
- Activity [5]: Dose-Dependent Effect
- Activity [6]: Tde
- Activity [7]: Tde
- Activity [8]: Tde
- Activity [9]: inactive
- Activity (MV4-11 [10]): 89.2%
- Activity (MOLM-13): Dose-Dependent Effect
- Cmax [11]: 1120 ng/mL
- Tmax [12]: 6.2 h
- half-life [13]: 3.8 h
- CL/F [14]: 11.2 mL/min/kg
- Activity [15]: Non-Toxic
- Activity (MV4-11 [16]): Active
- Activity [17]: Non-Toxic
- Activity [18]: Non-Toxic
- Activity (MV4-11 [19]): Active
- Activity (MV4-11 [20]): Active
- Activity (MV4-11 [21]): Active
- Activity (Mus musculus): Active
- Activity [22]: Non-Toxic
- Activity (MV4-11 [23]): Active
- Activity [24]: Active
- IC50 (BaF3): 46.7 nM
- half-life [25]: 0.982 h
- CLhep predicted [26]: 11.3 mL/min/kg
- IC50 (Cytochrome P450 2D6): > 50000 nM
- IC50 (Cytochrome P450 2C8): > 50000 nM
- IC50 [27]: > 40000 nM
